Experimental data published in patent US20060046966A1, “Antipicornaviral compounds and compositions, their pharmaceutical uses, and materials for their synthesis” (Agouron Pharmaceuticals, Inc., priority 1998, published 2006).

Tested on: Coxsackievirus type B3 (CVB-3)
Assay: Anticoxsackieviral cell culture assay, CVB-3
Format: cell-based
Details: 24 h, Strain CVB-3, H1-HeLa cells, one day, XTT, read-out: EC50
Experimental: Coxsackievirus types A-21 (CAV-21) and B3 (CVB-3) were purchased from American Type Culture Collection (ATCC, Rockville, Md.). Virus stocks were propagated and antiviral assays were performed in H1-HeLa cells (ATCC). Cells were grown in minimal essential medium with 10% fetal bovine serum (Life Technologies, Gaithersburg, Md.).
The ability of compounds to protect cells against either CAV-21 or CVB-3 infection was measured by the XTT dye reduction method. This method is described in Weislow et al., J. Natl. Cancer Inst. 1989, vol. 81, 577-586. H1-HeLa cells were infected with CAV-21 or CVB-3 at a multiplicity of infection (m.o.i.) of 0.025 or 0.075, respectively, or mock-infected with medium only. H1-HeLa cells were plated at 4×10^4 cells per well in a 96-well plate and incubated with appropriate concentrations of the test compound. One day (CVB-3) or two days (CAV-21) later, XTT/PMS was added to test plates and the amount of formazan produced was quantified spectrophotometrically at 450/650 nm. The EC50 was calculated as the concentration of compound that increased the formazan production in compound-treated, virus-infected cells to 50% of that produced by compound-free, uninfected cells. The 50% cytotoxic dose (CC50) was calculated as the concentration of compound that decreased formazan production in compound-treated, uninfected cells to 50% of that produced in compound-free, uninfected cells. The therapeutic index TI) was calculated by dividing the CC50 by the EC50.
The compounds were tested against control compounds WIN 54954 (obtained from Sterling-Winthrop Pharmaceuticals), Pirodavir (obtained from Janssen Pharmaceuticals), and Pleconaril (prepared according to Diana et al., J. Med. Chem. 1995, 38, 1355).

CCOC(=O)/C=C/[C@H](C[C@@H]1CCNC1=O)NC(=O)[C@@H](CC(=O)[C@@H](NC(=O)c1cc(C)on1)C(C)C)Cc1ccc(F)cc1 [Compound B-2, Ethyl-3-{(5′-Methylisoxazole-3′-carbonyl)-L-ValΨ(COCH2)-L-(4-F-Phe)-L-((S)-Pyrrol-Ala)}-E-Propenoate]
EC50: 180 nM
